Test system: rats
Test: 28-day repeated dose study in rats with mass spectrometry-based plasma metabolite profiling (GC-MS, LC-MS, SPE-LC-MS); treatment ratios versus control
Details: plasma; for Choline plasmalogen No 02 (putative), treatment ratio versus control / Lysophosphatidylcholine (C17:0), treatment ratio versus control / TAG (C42:9) (DAG-Fragment) (putative), treatment ratio versus control / Lyso PE (C22:0) (putative), treatment ratio versus control: male rats, Table 11b alpha 2 u globulin-nephropathy
[1] = day 7, high doses except for 1,1,2,2-tetrachloroethane
[2] = day 14, high doses except for 1,1,2,2-tetrachloroethane
[3] = day 28, high doses except for 1,1,2,2-tetrachloroethane

For `ClC(Cl)C(Cl)Cl` [1,1,2,2-Tetrachloroethane], the “3-Hydroxyindole (ratio treated vs control)” value (m7: male rats, day 7) was 1.39, the “4-Hydroxysphinganine (t18:0, Phytosphingosine), total (ratio treated vs control)” value (m7: male rats, day 7) was 2.03 and the “Glucuronic acid (ratio treated vs control)” value (m7: male rats, day 7) was 3.97. The “Glutamate (ratio treated vs control)” value (m7: male rats, day 7) was 2.31, the “Nervonic acid (C24:cis[15]1) (ratio treated vs control)” value (m7: male rats, day 7) was 1.09 and the “Oleic acid (C18:cis[9]1) (ratio treated vs control)” value (m7: male rats, day 7) was 1.11. For the same molecule, the “Ornithine (ratio treated vs control)” value (m7: male rats, day 7) was 2.10, the “Pantothenic acid (ratio treated vs control)” value (m7: male rats, day 7) was 4.46 and the “Phosphatidylcholine (C18:0, C18:1) (ratio treated vs control)” value (m7: male rats, day 7) was 1.48. The “Pseudouridine (ratio treated vs control)” value (m7: male rats, day 7) was 1.17, the “Sphingomyelin (d18:1, C16:0) (ratio treated vs control)” value (m7: male rats, day 7) was 1.65 and the “Sphingomyelin (d18:2, C18:0) (ratio treated vs control)” value (m7: male rats, day 7) was 1.22. For the same molecule, the “Xylitol (ratio treated vs control)” value (m7: male rats, day 7) was 12.21, the “dihomo-gamma-Linolenic acid (C20:cis[8,11,14]3) (ratio treated vs control)” value (m7: male rats, day 7) was 2.56 and the “3-Hydroxyindole (ratio treated vs control)” value (m14: male rats, day 14) was 2.05. For the same molecule, the “4-Hydroxysphinganine (t18:0, Phytosphingosine), total (ratio treated vs control)” value (m14: male rats, day 14) was 2.04, the “Glucuronic acid (ratio treated vs control)” value (m14: male rats, day 14) was 1.20 and the “Glutamate (ratio treated vs control)” value (m14: male rats, day 14) was 1.80. The “Nervonic acid (C24:cis[15]1) (ratio treated vs control)” value (m14: male rats, day 14) was 0.96, the “Oleic acid (C18:cis[9]1) (ratio treated vs control)” value (m14: male rats, day 14) was 1.18 and the “Ornithine (ratio treated vs control)” value (m14: male rats, day 14) was 2.38. The “Pantothenic acid (ratio treated vs control)” value (m14: male rats, day 14) was 4.32, the “Phosphatidylcholine (C18:0, C18:1) (ratio treated vs control)” value (m14: male rats, day 14) was 1.21 and the “Pseudouridine (ratio treated vs control)” value (m14: male rats, day 14) was 1.51. For the same molecule, the “Sphingomyelin (d18:1, C16:0) (ratio treated vs control)” value (m14: male rats, day 14) was 1.34, the “Sphingomyelin (d18:2, C18:0) (ratio treated vs control)” value (m14: male rats, day 14) was 0.93 and the “Xylitol (ratio treated vs control)” value (m14: male rats, day 14) was 10.32. For the same molecule, the “dihomo-gamma-Linolenic acid (C20:cis[8,11,14]3) (ratio treated vs control)” value (m14: male rats, day 14) was 3.40, the “3-Hydroxyindole (ratio treated vs control)” value (m28: male rats, day 28) was 2.05 and the “4-Hydroxysphinganine (t18:0, Phytosphingosine), total (ratio treated vs control)” value (m28: male rats, day 28) was 2.04. The “Glucuronic acid (ratio treated vs control)” value (m28: male rats, day 28) was 1.20, the “Glutamate (ratio treated vs control)” value (m28: male rats, day 28) was 1.80 and the “Nervonic acid (C24:cis[15]1) (ratio treated vs control)” value (m28: male rats, day 28) was 0.96. For the same molecule, the “Oleic acid (C18:cis[9]1) (ratio treated vs control)” value (m28: male rats, day 28) was 1.18, the “Ornithine (ratio treated vs control)” value (m28: male rats, day 28) was 2.38 and the “Pantothenic acid (ratio treated vs control)” value (m28: male rats, day 28) was 4.32. The “Phosphatidylcholine (C18:0, C18:1) (ratio treated vs control)” value (m28: male rats, day 28) was 1.21, the “Pseudouridine (ratio treated vs control)” value (m28: male rats, day 28) was 1.51 and the “Sphingomyelin (d18:1, C16:0) (ratio treated vs control)” value (m28: male rats, day 28) was 1.34. The “Sphingomyelin (d18:2, C18:0) (ratio treated vs control)” value (m28: male rats, day 28) was 0.93, the “Xylitol (ratio treated vs control)” value (m28: male rats, day 28) was 10.32 and the “dihomo-gamma-Linolenic acid (C20:cis[8,11,14]3) (ratio treated vs control)” value (m28: male rats, day 28) was 3.40. The “Choline plasmalogen No 02 (putative), treatment ratio versus control” value [1] was 1.04, the “Lysophosphatidylcholine (C17:0), treatment ratio versus control” value [1] was 0.63 and the “TAG (C42:9) (DAG-Fragment) (putative), treatment ratio versus control” value (“TAG … treatment ratio versus control” below) [1] was 0.76. For the same molecule, the “Choline plasmalogen No 02 (putative), treatment ratio versus control” value [2] was 1.13, the “Lysophosphatidylcholine (C17:0), treatment ratio versus control” value [2] was 0.89 and the “TAG … treatment ratio versus control” value [2] was 0.72. The “Choline plasmalogen No 02 (putative), treatment ratio versus control” value [3] was 1.13, the “Lysophosphatidylcholine (C17:0), treatment ratio versus control” value [3] was 0.89 and the “TAG … treatment ratio versus control” value [3] was 0.72.
`CC(C)CC(C)(C)C` [2,2,4-Trimethylpentane, 2,2,4-trimethylpentane] was tested, and the “3-Hydroxyindole (ratio treated vs control)” value (m7: male rats, day 7) was 1.92, the “4-Hydroxysphinganine (t18:0, Phytosphingosine), total (ratio treated vs control)” value (m7: male rats, day 7) was 1.46 and the “Glucuronic acid (ratio treated vs control)” value (m7: male rats, day 7) was 3.88. The “Glutamate (ratio treated vs control)” value (m7: male rats, day 7) was 1.57, the “Nervonic acid (C24:cis[15]1) (ratio treated vs control)” value (m7: male rats, day 7) was 1.60 and the “Oleic acid (C18:cis[9]1) (ratio treated vs control)” value (m7: male rats, day 7) was 2.10. The “Ornithine (ratio treated vs control)” value (m7: male rats, day 7) was 1.12, the “Pantothenic acid (ratio treated vs control)” value (m7: male rats, day 7) was 2.59 and the “Phosphatidylcholine (C18:0, C18:1) (ratio treated vs control)” value (m7: male rats, day 7) was 1.35. The “Pseudouridine (ratio treated vs control)” value (m7: male rats, day 7) was 1.23, the “Sphingomyelin (d18:1, C16:0) (ratio treated vs control)” value (m7: male rats, day 7) was 1.62 and the “Sphingomyelin (d18:2, C18:0) (ratio treated vs control)” value (m7: male rats, day 7) was 1.35. For the same molecule, the “Xylitol (ratio treated vs control)” value (m7: male rats, day 7) was 1.65, the “dihomo-gamma-Linolenic acid (C20:cis[8,11,14]3) (ratio treated vs control)” value (m7: male rats, day 7) was 2.42 and the “3-Hydroxyindole (ratio treated vs control)” value (m14: male rats, day 14) was 2.88. The “4-Hydroxysphinganine (t18:0, Phytosphingosine), total (ratio treated vs control)” value (m14: male rats, day 14) was 1.34, the “Glucuronic acid (ratio treated vs control)” value (m14: male rats, day 14) was 3.87 and the “Glutamate (ratio treated vs control)” value (m14: male rats, day 14) was 1.44. For the same molecule, the “Nervonic acid (C24:cis[15]1) (ratio treated vs control)” value (m14: male rats, day 14) was 1.38, the “Oleic acid (C18:cis[9]1) (ratio treated vs control)” value (m14: male rats, day 14) was 2.37 and the “Ornithine (ratio treated vs control)” value (m14: male rats, day 14) was 1.23. For the same molecule, the “Pantothenic acid (ratio treated vs control)” value (m14: male rats, day 14) was 3.07, the “Phosphatidylcholine (C18:0, C18:1) (ratio treated vs control)” value (m14: male rats, day 14) was 1.34 and the “Pseudouridine (ratio treated vs control)” value (m14: male rats, day 14) was 1.31. The “Sphingomyelin (d18:1, C16:0) (ratio treated vs control)” value (m14: male rats, day 14) was 1.59, the “Sphingomyelin (d18:2, C18:0) (ratio treated vs control)” value (m14: male rats, day 14) was 1.28 and the “Xylitol (ratio treated vs control)” value (m14: male rats, day 14) was 1.33. For the same molecule, the “dihomo-gamma-Linolenic acid (C20:cis[8,11,14]3) (ratio treated vs control)” value (m14: male rats, day 14) was 2.06, the “3-Hydroxyindole (ratio treated vs control)” value (m28: male rats, day 28) was 2.30 and the “4-Hydroxysphinganine (t18:0, Phytosphingosine), total (ratio treated vs control)” value (m28: male rats, day 28) was 1.26. The “Glucuronic acid (ratio treated vs control)” value (m28: male rats, day 28) was 3.46, the “Glutamate (ratio treated vs control)” value (m28: male rats, day 28) was 1.74 and the “Nervonic acid (C24:cis[15]1) (ratio treated vs control)” value (m28: male rats, day 28) was 1.22. The “Oleic acid (C18:cis[9]1) (ratio treated vs control)” value (m28: male rats, day 28) was 2.97, the “Ornithine (ratio treated vs control)” value (m28: male rats, day 28) was 1.23 and the “Pantothenic acid (ratio treated vs control)” value (m28: male rats, day 28) was 3.03. The “Phosphatidylcholine (C18:0, C18:1) (ratio treated vs control)” value (m28: male rats, day 28) was 1.35, the “Pseudouridine (ratio treated vs control)” value (m28: male rats, day 28) was 1.28 and the “Sphingomyelin (d18:1, C16:0) (ratio treated vs control)” value (m28: male rats, day 28) was 1.54. The “Sphingomyelin (d18:2, C18:0) (ratio treated vs control)” value (m28: male rats, day 28) was 1.23, the “Xylitol (ratio treated vs control)” value (m28: male rats, day 28) was 1.68 and the “dihomo-gamma-Linolenic acid (C20:cis[8,11,14]3) (ratio treated vs control)” value (m28: male rats, day 28) was 2.77. For the same molecule, the “Choline plasmalogen No 02 (putative), treatment ratio versus control” value [1] was 0.72, the “Lyso PE (C22:0) (putative), treatment ratio versus control” value (“Lyso PE … treatment ratio versus control” below) [1] was 0.54 and the “Lysophosphatidylcholine (C17:0), treatment ratio versus control” value [1] was 0.72. The “TAG … treatment ratio versus control” value [1] was 0.67, the “Choline plasmalogen No 02 (putative), treatment ratio versus control” value [2] was 0.73 and the “Lyso PE … treatment ratio versus control” value [2] was 0.49. The “Lysophosphatidylcholine (C17:0), treatment ratio versus control” value [2] was 0.73, the “TAG … treatment ratio versus control” value [2] was 0.64 and the “Choline plasmalogen No 02 (putative), treatment ratio versus control” value [3] was 0.81. For the same molecule, the “Lyso PE … treatment ratio versus control” value [3] was 0.45, the “Lysophosphatidylcholine (C17:0), treatment ratio versus control” value [3] was 0.80 and the “TAG … treatment ratio versus control” value [3] was 0.76.

From US20150011423A1, “MEANS AND METHODS FOR ASSESSING KIDNEY TOXICITY” (BASF SE, priority 2011, published 2015)
